Test results taken from patent US20140249139A1, “Quinazoline Derivatives” (NOVARTIS AG, priority 2011, published 2014).

Columns and labels:
PI3K alpha = molecular target: T1, PI3K alpha (Homo sapiens, UniProt P42336); assay: Enzymatic PI3K alpha isoform inhibition (lipid kinase activity, Kinase-Glo); assay type: biochemical; conditions: enzymatic assay
T1 construct: for the p110-a subunit (with a deletion of the first 20 amino acids) are generated; His tag (C); made in house; host or cells: baculovirus BV1075; Tn5 (Trichoplusia ni) or TiniPro insect cells
How it was run: (§1)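 Reactions were started with ATP (2 μM solution) after the enzyme (10 nM solution) and phosphatidylinositol substrate (5 μg/ml solution) were added to the DMSO-dissolved compounds.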

PI3K delta [1] = molecular target: T2, PI3K delta (Homo sapiens, UniProt O00329); assay: Enzymatic PI3K delta isoform inhibition (lipid kinase activity, Kinase-Glo); assay type: biochemical; conditions: enzymatic assay
T2 construct: for the full-length p110-d subunit are generated and fused by overlapping PCR; His tag (C); made in house; host or cells: baculovirus BV1060; Tn5 (Trichoplusia ni) or TiniPro insect cells
How it was run: as §1
T2 sequence (O00329 with tags, fused parts or gaps limits assumed, species assumed): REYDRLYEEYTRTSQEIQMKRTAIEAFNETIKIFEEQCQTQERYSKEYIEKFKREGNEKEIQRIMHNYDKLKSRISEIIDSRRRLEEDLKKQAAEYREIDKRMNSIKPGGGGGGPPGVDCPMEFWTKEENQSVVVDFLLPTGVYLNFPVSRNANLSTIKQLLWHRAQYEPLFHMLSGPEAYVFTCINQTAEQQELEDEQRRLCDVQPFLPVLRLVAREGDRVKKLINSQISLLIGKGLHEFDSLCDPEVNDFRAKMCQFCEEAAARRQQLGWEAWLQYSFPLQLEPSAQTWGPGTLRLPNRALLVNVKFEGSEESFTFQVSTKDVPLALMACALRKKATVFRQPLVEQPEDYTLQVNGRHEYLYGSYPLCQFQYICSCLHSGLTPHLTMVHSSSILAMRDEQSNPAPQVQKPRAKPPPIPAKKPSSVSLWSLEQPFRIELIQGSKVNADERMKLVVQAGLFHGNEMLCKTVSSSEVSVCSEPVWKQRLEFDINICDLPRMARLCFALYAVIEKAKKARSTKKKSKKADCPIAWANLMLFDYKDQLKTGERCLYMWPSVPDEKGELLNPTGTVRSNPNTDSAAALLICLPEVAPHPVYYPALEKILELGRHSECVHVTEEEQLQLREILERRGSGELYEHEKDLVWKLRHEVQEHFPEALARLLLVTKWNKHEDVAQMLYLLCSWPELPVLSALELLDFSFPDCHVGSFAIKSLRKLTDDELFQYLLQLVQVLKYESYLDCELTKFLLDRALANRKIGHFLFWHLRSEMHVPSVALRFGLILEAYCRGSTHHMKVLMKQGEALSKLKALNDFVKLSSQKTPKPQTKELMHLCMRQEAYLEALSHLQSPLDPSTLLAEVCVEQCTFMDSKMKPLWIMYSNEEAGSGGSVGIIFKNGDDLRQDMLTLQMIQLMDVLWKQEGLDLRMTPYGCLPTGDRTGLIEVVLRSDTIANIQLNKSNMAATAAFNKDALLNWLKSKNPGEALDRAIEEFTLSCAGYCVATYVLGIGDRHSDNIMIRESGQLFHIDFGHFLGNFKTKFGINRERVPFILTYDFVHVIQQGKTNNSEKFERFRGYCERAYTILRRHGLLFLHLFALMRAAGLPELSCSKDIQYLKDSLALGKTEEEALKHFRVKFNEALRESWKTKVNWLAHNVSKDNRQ

PI3K delta [2] = molecular target: T3, PI3K delta (Homo sapiens, UniProt O00329); assay: Cellular PI3K delta inhibition: PKB Ser473 phosphorylation in Rat1 cells expressing myr-HA-p110 delta; assay type: cell-based, rat; conditions: 1 h incubation, read-out: Cell PI3Kd/ IC50
T3 construct: myristylation signal (myr) (N); HA tag (N); expressed in transfected cells; host or cells: Rat1 cells, stably transfected
T3 sequence (O00329 1-1044): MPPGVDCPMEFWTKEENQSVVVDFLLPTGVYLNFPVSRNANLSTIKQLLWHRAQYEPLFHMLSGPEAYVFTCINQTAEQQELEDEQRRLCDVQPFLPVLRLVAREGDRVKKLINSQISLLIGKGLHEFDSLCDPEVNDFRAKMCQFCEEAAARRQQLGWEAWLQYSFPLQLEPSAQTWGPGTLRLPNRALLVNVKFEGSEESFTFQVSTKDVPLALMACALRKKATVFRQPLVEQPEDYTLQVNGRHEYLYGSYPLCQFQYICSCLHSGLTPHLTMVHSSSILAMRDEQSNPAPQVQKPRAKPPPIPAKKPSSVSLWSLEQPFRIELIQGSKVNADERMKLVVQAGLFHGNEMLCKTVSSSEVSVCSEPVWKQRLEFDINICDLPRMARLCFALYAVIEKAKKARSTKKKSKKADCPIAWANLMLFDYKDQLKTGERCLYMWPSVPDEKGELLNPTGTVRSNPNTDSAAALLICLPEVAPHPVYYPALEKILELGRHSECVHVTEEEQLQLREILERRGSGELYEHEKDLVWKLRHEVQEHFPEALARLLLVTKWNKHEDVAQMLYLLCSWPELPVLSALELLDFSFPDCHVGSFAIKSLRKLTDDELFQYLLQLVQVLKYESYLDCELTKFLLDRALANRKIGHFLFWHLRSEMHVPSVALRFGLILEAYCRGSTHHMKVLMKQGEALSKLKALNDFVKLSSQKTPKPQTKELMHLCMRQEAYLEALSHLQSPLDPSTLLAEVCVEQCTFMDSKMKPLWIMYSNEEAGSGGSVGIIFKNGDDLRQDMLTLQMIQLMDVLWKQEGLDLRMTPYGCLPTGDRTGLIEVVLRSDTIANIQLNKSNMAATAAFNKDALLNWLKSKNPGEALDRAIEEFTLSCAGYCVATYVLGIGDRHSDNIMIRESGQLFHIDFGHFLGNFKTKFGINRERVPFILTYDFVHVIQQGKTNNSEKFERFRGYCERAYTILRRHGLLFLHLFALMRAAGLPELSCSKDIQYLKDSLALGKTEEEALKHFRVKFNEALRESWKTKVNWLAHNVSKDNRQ
Experimental: The compounds tested were prepared as 10 mM stock solutions in DMSO (Merck, #8.02912.2500). Test compounds were prepared in 384 well plates (Greiner PP-Microplate, #781201) in 3-fold serial dilutions in 90% DMSO (Merck, #8.02912.2500) with 8 concentrations starting at 2 mM. Test compounds were prediluted (1:400) in two subsequent 1:20 dilution steps (5 μl+95 μl) from the master plate into starving medium in 384 well plates using a MATRIX PlateMate 2×2 pipettor (384 well-head). 25 μl/well of this 1:400 dilution were then added to the cell culture plate.
The Rat1-myr-HA-p110 alpha, beta and delta cells were trypsinized and counted with a CASY TT cell counter (Schärfe System GmbH, Reutlingen Germany). Rat1 cells expressing myr-HA-p110 alpha, beta and delta were seeded in 384-well plates at 15,000 cells per well in 50 μl/well complete medium and incubated for 20 h at 37° C., 5% CO2 until the cell layers reached 80-90% confluency. […] in 384 well plates using a MATRIX PlateMate 2×2 pipettor (384 well-head). 25 μl/well of this 1:400 dilution were then added to the cell culture plate.
Untreated cells were used as low controls, cells stimulated in absence of compounds were used as high controls. After an incubation of 1 h with compounds, cells were lysed by addition of 15 μl 3× lysis buffer (provided as 5× solution with the SureFire kit) enriched with 0.72% BSA, yielding a total volume of 45 μl cell lysate per well. Cell lysates were either used immediately of stored frozen (in sealed plates) at −20° C. until use. 5 μl of each lysate were transferred to Proxy-plates and mixed with Surefire beads, reaction buffer (containing the appropriate antibodies), activation buffer and dilution buffer according to the instructions of the supplier, yielding a total volume of 12 μl per well (the total final BSA conc. in the assay was 0.1%). After 2 h incubation (with shaking) in the dark at RT, light emission was measured using the EnVision Reader (Perkin Elmer). The difference between high and low controls was taken as 100% and compound effects were expressed as percent inhibition. IC50 values were determined from the dose response curves by graphical extrapolation.

T1 sequence (P42336 with tags, fused parts or gaps limits assumed, species assumed): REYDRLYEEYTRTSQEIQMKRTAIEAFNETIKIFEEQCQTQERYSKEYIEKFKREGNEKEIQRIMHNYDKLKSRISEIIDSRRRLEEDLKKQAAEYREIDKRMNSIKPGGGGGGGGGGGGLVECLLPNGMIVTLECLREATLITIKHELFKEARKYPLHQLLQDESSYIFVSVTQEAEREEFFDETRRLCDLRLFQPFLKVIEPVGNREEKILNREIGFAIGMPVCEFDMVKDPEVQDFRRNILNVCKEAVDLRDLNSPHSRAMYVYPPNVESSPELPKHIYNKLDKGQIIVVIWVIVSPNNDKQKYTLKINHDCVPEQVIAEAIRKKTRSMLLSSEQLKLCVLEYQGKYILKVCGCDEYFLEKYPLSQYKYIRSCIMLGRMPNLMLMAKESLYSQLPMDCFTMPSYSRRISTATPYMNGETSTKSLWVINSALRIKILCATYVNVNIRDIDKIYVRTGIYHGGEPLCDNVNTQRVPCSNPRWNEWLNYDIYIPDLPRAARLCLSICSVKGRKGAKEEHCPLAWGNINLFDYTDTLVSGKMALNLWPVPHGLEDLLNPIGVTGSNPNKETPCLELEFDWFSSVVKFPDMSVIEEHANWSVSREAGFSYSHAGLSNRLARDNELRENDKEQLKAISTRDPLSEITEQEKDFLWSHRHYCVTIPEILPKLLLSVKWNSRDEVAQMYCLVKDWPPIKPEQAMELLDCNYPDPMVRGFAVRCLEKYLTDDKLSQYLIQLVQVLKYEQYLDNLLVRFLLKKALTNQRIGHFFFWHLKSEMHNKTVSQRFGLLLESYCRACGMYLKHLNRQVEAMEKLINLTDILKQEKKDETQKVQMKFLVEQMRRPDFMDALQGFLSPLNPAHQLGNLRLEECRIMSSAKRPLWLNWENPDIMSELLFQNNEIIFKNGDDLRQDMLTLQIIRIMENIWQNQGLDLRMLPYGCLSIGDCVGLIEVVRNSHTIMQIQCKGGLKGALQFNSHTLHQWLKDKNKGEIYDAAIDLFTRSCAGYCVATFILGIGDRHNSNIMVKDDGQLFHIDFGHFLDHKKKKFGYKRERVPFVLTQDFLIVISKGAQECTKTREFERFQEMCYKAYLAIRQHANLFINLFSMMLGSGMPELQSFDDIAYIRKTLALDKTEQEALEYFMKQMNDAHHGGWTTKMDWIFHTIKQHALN

Row | Structure (SMILES) | IC50 (PI3K alpha) | IC50 (PI3K delta [1]) | IC50 (PI3K delta [2])
1 | CNc1ncc(-c2ccc3ncnc(-c4cncc(C(=O)N5CCN(C)CC5)c4)c3c2)cc1C [Example 75, {5-[6-(5-Methyl-6-methylamino-pyridin-3-yl)-quinazolin-4-yl]-pyridin-3-yl}-(4-methyl-piperazin-1-yl)-methanone] | 320 nM | 12 nM | 14 nM
2 | COc1ccc(-c2ccc3ncnc(-c4cccc(C(=O)N5CCN(C(C)=O)CC5)c4)c3c2)cc1S(=O)(=O)N1CCCC1 [Example 7] | 712 nM | 6 nM | 83 nM
3 | COc1ccc(-c2ccc3ncnc(-c4cncc(C(=O)N5CCNC(C)(C)C5)c4)c3c2)cc1C(F)(F)F [Example 81, (3,3-Dimethyl-piperazin-1-yl)-{5-[6-(4-methoxy-3-trifluoromethyl-phenyl)-quinazolin-4-yl]-pyridin-3-yl}-methanone] | 401 nM | 3.62 nM | 19.5 nM
4 | COc1ccc(-c2ccc3ncnc(-c4cc(F)cc(C(=O)N5CCN(C(C)=O)CC5)c4)c3c2)cn1 [Example 110, 1-(4-{3-Fluoro-5-[6-(6-methoxy-pyridin-3-yl)-quinazolin-4-yl]-benzoyl}-piperazin-1-yl)-ethanone] | 366 nM | 8 nM | 103 nM
5 | COc1ncc(-c2ccc3ncnc(-c4cccc(C(=O)N5CCN(C)CC5)c4)c3c2)cn1 [Example 2] | 779 nM | 9.5 nM | 27.5 nM
6 | COc1ccc(-c2ccc3ncnc(-c4ccc(C)c(C(=O)N5CC6CC5CN6C)c4)c3c2)cn1 (stereo not drawn) [Example 117] | 238 nM | 9 nM | 43 nM
7 | COc1ccc(-c2ccc3ncnc(-c4cccc(C(=O)N5C[C@@H]6C[C@H]5CN6C)c4)c3c2)cn1 [Example 91, {3-[6-(6-Methoxy-pyridin-3-yl)-quinazolin-4-yl]-phenyl}-((1S,4S)-5-methyl-2,5-diaza-bicyclo[2.2.1]hept-2-yl)-methanone] | 146 nM | < 3 nM | 32.3 nM
